Reference: patent publication US20210046160A1 (Synthorx, Inc., priority 2019, published 2021)

How the values were obtained:
[1] = test system: Treg cells; assay: pSTAT5 concentration-response in human LRS-derived PBMC samples (flow cytometry): Treg cells; assay type: cell-based; conditions: ratio of pSTAT5 EC50 values; for CD8+/Treg ratio: Table 12; for CD8/Treg ratio: Table 4
Experimental: These studies were performed at PrimityBio LLC (Fremont, Calif.). […] Staining panel for flow cytometry study of LRS-derived PBMC samples include markers for Effector T cells (Teff: CD3+, CD4+, CD8+, CD127+), NK cells (CD3-, CD16+), and Regulatory T cells (Treg: CD3+, CD4+, CD8-, IL-2Rα+, CD127-1).
The EC50 values (pg/mL) was calculated from dose response curves generated from MFI plots.
These studies were performed at PrimityBio LLC (Fremont, Calif.). […] Staining panel for flow cytometry study of LRS-derived PBMC samples include markers CD4, CD4+ memory central, CD4+ memory effect, CD4+ memory T cells, CD4+ Naive T cells, CD4+ T cells, CD8, CD8+ memory central, CD8+ memory effect, CD8+ memory T cells, CD8+ Naive T cells, CD8+ T cells, NK cells, and T regulatory cells.
Conjugates of Table 12 were synthesized by modification of SEQ NO. 1. These studies were performed at PrimityBio LLC (Fremont, Calif.).
The EC50 values (pg/ml) were calculated from dose response curves generated from the MFI plots.

[2] = test system: CTLL-2; assay: CTLL-2 proliferation; assay type: cell-based
[3] = PK study E3826-U1704 in naïve C57BL/6 mice (human IL-2 ELISA of plasma); assay type: in vivo; conditions: for AUC0-t / AUCINF / CL / Cmax / Tmax / Vss (distribution volume) / t½: C57BL/6 female mice, single IV bolus 0.3 mg/kg, E62_5 kD from a separate study; for mean plasma concentrations measurable out to (post-dose): single IV bolus, 120 h = last measured time point
Experimental: Terminal blood samples were collected via cardiac puncture at the points indicated. […] Plasma and blood cells (in both studies) and tumors in study E3826-U1803 were collected for PK and PD analyses.
Bioanalysis of plasma samples was performed using a qualified human IL-2 ELISA assay (Abcam, Cambridge, UK). Concentrations of Aldesleukin, E62_30kD and P65_30kD and the internal standard in samples derived from plasma were determined using an ELISA assay. […] The PK data were imported into Phoenix WinNonlin v6.4 (Certara/Pharsight, Princeton, N.J.) for analysis. The group mean plasma concentration versus time data were analyzed with noncompartmental methods using an IV bolus administration model.

[4] = PK study of K35_30kD in C57BL/6 mice (Example 8); assay type: in vivo; conditions: male C57BL/6 mice
Experimental: The lyophilized test article was reconstituted in PBS, and nine male C57BL/6 mice were dosed with 0.3 and 3 mg/kg via intravenous tail vein injection for each dose group (see collection details below). Blood samples were collected at 0.08, 0.25, 0.5, 1, 2, 4, 8, 12, and 24 hours post dose. […] To adjust for ELISA-specific differences in sensitivity of kit detection of native and PEGylated compounds, native IL-2 and K35_30kD test article standard curves were generated using the test article diluent buffer, and data were analyzed with respect to respective standard curves. The data plotted represent the mean and SEM of three individual samples (biological replicates) as described above, and PK parameters for K35_30 kD test articles were extracted and summarized in Table 14.

Substance: D20_30kD: 30 kD PEGylated IL-2 conjugate at D20, made by modification of SEQ NO. 1 [Compound D20_30kD]
- CD8+/Treg ratio [1]: 8
- EC50, CTLL-2 proliferation ([2]; Table 12): 689939 pg/mL

Substance: E62K: IL-2 variant with residue substitution E62K, not PEGylated [Compound E62K]
- CD8/Treg ratio [1]: 5.8
- EC50, CTLL-2 proliferation ([2]; Table 4): 58,213 pg/mL

Substance: E62_5kD: SEQ ID NO: 21: IL-2 (SEQ ID NO: 4) with E62 replaced by AzK conjugated to methoxy linear 5 kDa PEG [Compound E62_5kD]
- AUC0-t [3]: 798 ng·h/mL
- AUCINF [3]: 807 ng·h/mL
- CL [3]: 6.2 mL/min/kg
- Cmax [3]: 936 ng/mL
- Tmax [3]: 7.98 min
- Vss (distribution volume) [3]: 0.404 L/kg
- t½ [3]: 2.56 h
- mean plasma concentrations measurable out to (post-dose) [3]: 12 h
- CD8/Treg ratio [1]: 2.3
- EC50, CTLL-2 proliferation ([2]; Table 4): 275,590 pg/mL

Substance: E62_30kD: SEQ ID NO: 26: IL-2 (SEQ ID NO: 4) with E62 replaced by AzK conjugated to methoxy linear 30 kDa PEG [Compound E62_30kD]
- AUC0-t [3]: 37,100 h*ng/mL
- AUCINF [3]: 37,100 h*ng/mL
- CL [3]: 0.134 mL/min/kg
- Cmax [3]: 4,230 ng/mL
- Tmax [3]: 1.8 min
- Vss (distribution volume) [3]: 0.0923 L/kg
- t½ [3]: 14.500 h
- mean plasma concentrations measurable out to (post-dose) [3]: 120 h
- CD8/Treg ratio [1]: 1.8
- EC50, CTLL-2 proliferation ([2]; Table 4): 398,012 pg/mL

Substance: E100_30kD: 30 kD PEGylated IL-2 conjugate at E100, made by modification of SEQ NO. 1 [Compound E100_30kD]
- CD8+/Treg ratio [1]: 405
- EC50, CTLL-2 proliferation ([2]; Table 12): 1676 pg/mL

Substance: H16_30kD: 30 kD PEGylated IL-2 conjugate at H16, made by modification of SEQ NO. 1 [Compound H16_30kD]
- CD8+/Treg ratio [1]: 345
- EC50, CTLL-2 proliferation ([2]; Table 12): 80755 pg/mL

Substance: K9_30kD: 30 kD PEGylated IL-2 conjugate at K9, made by modification of SEQ NO. 1 [Compound K9_30kD]
- CD8+/Treg ratio [1]: 496
- EC50, CTLL-2 proliferation ([2]; Table 12): 504 pg/mL

Substance: K35_30kD: SEQ ID NO: 29: IL-2 (SEQ ID NO: 4) with K35 replaced by AzK conjugated to methoxy linear 30 kDa PEG [Compound K35_30kD]
- AUC1/2extrap ([4]; 0.3 mg/kg single IV): 35.3%
- AUCo-t/D ([4]; 0.3 mg/kg single IV): 128000 ng·h/mL
- AUG0-∞ ([4]; 0.3 mg/kg single IV): 59600 ng·h/mL
- Cmax ([4]; 0.3 mg/kg single IV): 6080 ng/mL
- Cmax/D ([4]; 0.3 mg/kg single IV): 20300 kg·ng/mL/mg
- Tmax ([4]; 0.3 mg/kg single IV): 0.250 h
- t1/2 ([4]; 0.3 mg/kg single IV): 18.2 h
- AUC1/2extrap ([4]; 3 mg/kg single IV): 37.4%
- AUCo-t/D ([4]; 3 mg/kg single IV): 142000 ng·h/mL
- AUG0-∞ ([4]; 3 mg/kg single IV): 679000 ng·h/mL
- Cmax ([4]; 3 mg/kg single IV): 57700 ng/mL
- Cmax/D ([4]; 3 mg/kg single IV): 19200 kg·ng/mL/mg
- Tmax ([4]; 3 mg/kg single IV): 0.250 h
- t1/2 ([4]; 3 mg/kg single IV): 19.5 h
- CD8/Treg ratio [1]: 176.0

Substance: L19_30kD: 30 kD PEGylated IL-2 conjugate at L19, made by modification of SEQ NO. 1 [Compound L19_30kD]
- CD8+/Treg ratio [1]: 241
- EC50, CTLL-2 proliferation ([2]; Table 12): 3510 pg/mL

Substance: M23_30kD: 30 kD PEGylated IL-2 conjugate at M23, made by modification of SEQ NO. 1 [Compound M23_30kD]
- CD8+/Treg ratio [1]: 524
- EC50, CTLL-2 proliferation ([2]; Table 12): 1102 pg/mL

Substance: N26_30kD: 30 kD PEGylated IL-2 conjugate at N26, made by modification of SEQ NO. 1 [Compound N26_30kD]
- CD8+/Treg ratio [1]: 483
- EC50, CTLL-2 proliferation ([2]; Table 12): 2594 pg/mL

Substance: N88R/D109_30kD: IL-2 variant N88R with 30 kD PEG at D109, made by modification of SEQ NO. 1
- CD8+/Treg ratio [1]: 71
- EC50, CTLL-2 proliferation ([2]; Table 12): 59577 pg/mL

Substance: N88R: IL-2 variant with substitution N88R [Compound N88R]
- CD8+/Treg ratio [1]: 1356
- EC50, CTLL-2 proliferation ([2]; Table 12): 363 pg/mL

Substance: N88_30kD: 30 kD PEGylated IL-2 conjugate at N88, made by modification of SEQ NO. 1 [Compound N88_30kD]
- CD8+/Treg ratio [1]: 34
- EC50, CTLL-2 proliferation ([2]; Table 12): 66606 pg/mL

Substance: N119_30kD: 30 kD PEGylated IL-2 conjugate at N119, made by modification of SEQ NO. 1 [Compound N119_30kD]
- CD8+/Treg ratio [1]: 268
- EC50, CTLL-2 proliferation ([2]; Table 12): 1215 pg/mL

Substance: P65_5kD: SEQ ID NO: 20: IL-2 (SEQ ID NO: 4) with P65 replaced by AzK conjugated to methoxy linear 5 kDa PEG [Compound P65_5kD]
- CD8/Treg ratio [1]: 2.2
- EC50, CTLL-2 proliferation ([2]; Table 4): 194,924 pg/mL

Substance: Q126_30kD: 30 kD PEGylated IL-2 conjugate at Q126, made by modification of SEQ NO. 1 [Compound Q126_30kD]
- CD8+/Treg ratio [1]: 670
- EC50, CTLL-2 proliferation ([2]; Table 12): 3584 pg/mL

Substance: S127_30kD: 30 kD PEGylated IL-2 conjugate at S127, made by modification of SEQ NO. 1 [Compound S127_30kD]
- CD8+/Treg ratio [1]: 615
- EC50, CTLL-2 proliferation ([2]; Table 12): 123 pg/mL

Substance: T123_30kD: 30 kD PEGylated IL-2 conjugate at T123, made by modification of SEQ NO. 1 [Compound T123_30kD]
- CD8+/Treg ratio [1]: 569
- EC50, CTLL-2 proliferation ([2]; Table 12): 255 pg/mL

Substance: T131_30kD: 30 kD PEGylated IL-2 conjugate at T131, made by modification of SEQ NO. 1 [Compound T131_30kD]
- CD8+/Treg ratio [1]: 515
- EC50, CTLL-2 proliferation ([2]; Table 12): 641 pg/mL

Substance: V91K: IL-2 variant with substitution V91K [Compound V91K]
- CD8+/Treg ratio [1]: 720
- EC50, CTLL-2 proliferation ([2]; Table 12): 99.5 pg/mL
